This is an account of results in BindingDB's records for patent US20230278983 (Universite Claude Bernard Lyon 1, 2023).

In the assay the target is Casein kinase II subunit alpha (Homo sapiens, UniProt P68400). In words: Radiometric Kinase Assay.
Casein kinase II subunit alpha, sequence (P68400 whole entry): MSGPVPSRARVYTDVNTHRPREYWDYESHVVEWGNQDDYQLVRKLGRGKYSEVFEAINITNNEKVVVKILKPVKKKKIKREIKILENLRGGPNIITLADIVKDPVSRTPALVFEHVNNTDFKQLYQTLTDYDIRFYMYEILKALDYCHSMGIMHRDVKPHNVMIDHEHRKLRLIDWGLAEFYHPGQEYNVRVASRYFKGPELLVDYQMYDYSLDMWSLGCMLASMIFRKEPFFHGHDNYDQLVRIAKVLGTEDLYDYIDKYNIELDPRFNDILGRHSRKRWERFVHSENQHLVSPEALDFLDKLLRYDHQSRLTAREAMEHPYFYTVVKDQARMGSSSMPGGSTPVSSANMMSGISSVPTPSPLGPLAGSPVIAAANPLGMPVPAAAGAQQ

Molecule `CC(C)COC(=O)c1[nH]c2ccc(F)cc2c1-c1cn(CC2CCN(CCNS(=O)(=O)c3ccc(-c4ccccc4C#N)cc3)CC2)nn1` [US20230278983, Code AB1076] had an IC50 of 46 nM.
